# Experimental data reported in US12157730B2, “Heteroaryl derivative, method for producing same, and pharmaceutical composition comprising same as effective component” (VORONOI INC., priority 2019, dated 2024).
# Target: T1, Ba/F3 cell EGFR Exon20 ins NPH (Homo sapiens, UniProt P00533, INS773NPH)
# T1 construct: expressed in transfected cells; host or cells: Ba/F3
# Experiment: Ba/F3 cell proliferation suppression, EGFR Exon20 ins NPH
# Format: cell-based
# Conditions: GI50 class; Ba/F3 cell line with NPH inserted at Exon20 of EGFR; 72 hours
# Procedure, shortened: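 Growth suppression determined as GI50 following 72 h exposure across 12 concentrations up to 50 um, with viability by luminescent ATP assay (CellTiter-Glo).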
row,SMILES,Ba/F3 (NPH) Activity
1,"C=CC(=O)Nc1cc(Nc2cc(N3OCC[C@@H]3c3cccc(Cl)c3C)ncn2)c(OC)cc1N1CCC(N2C[C@@H]3C[C@H]2CO3)CC1 [compound 531, N-(2-(4-((1S,4S)-2-oxa-5-azabicyclo[2.2.1]heptane-5-yl)piperidine-1-yl)-5-((6-((R)-3-(3-chloro-2-methylphenyl)isoxazolidine-2-yl)pyrimidine-4-yl)amino)-4-methoxyphenyl) acrylamide]",A (GI50 < 50 nM)
2,"C=CC(=O)Nc1cc(Nc2cc(N3OCC[C@@H]3c3cccc(Cl)c3Cl)ncn2)c(OC)cc1N1CCC(N2C[C@@H]3C[C@H]2CN3CC)CC1 [compound 607, N-(5-((6-((R)-3-(2,3-dichlorophenyl)isoxazolidine-2-yl)pyrimidine-4-yl)amino)-2-(4-((1S,4S)-5-ethyl-2,5-diazabicyclo[2.2.1]heptane-2-yl)piperidine-1-yl)-4-methoxyphenyl) acrylamide]",A (GI50 < 50 nM)
3,"C=CC(=O)Nc1cc(Nc2cc(N3OCC[C@@H]3c3ccc(F)c(Cl)c3)ncn2)c(OC)cc1N1CCC(N2CCN(C3CCCC3)CC2)CC1 [Example 99, N-(5-((6-((R)-3-(3-chloro-4-fluorophenyl)isoxazolidine-2-yl)pyrimidine-4-yl)amino)-2-(4-(4-cyclopentylpiperazine-1-yl)piperidine-1-yl)-4-methoxyphenyl) acrylamide]",A (GI50 < 50 nM)
4,"C=CC(=O)Nc1cc(Nc2cc(N3OCC[C@@H]3c3ccc(Cl)c(Cl)c3F)ncn2)c(OC)cc1N1CCC(N2CCN(C3CC3)CC2)CC1 [Example 60, N-(2-(4-(4-cyclopropylpiperazine-1-yl)piperidine-1-yl)-5-((6-((R)-3-(3,4-dichloro-2-fluorophenyl)isoxazolidine-2-yl)pyrimidine-4-yl)amino)-4-methoxyphenyl) acrylamide;]",A (GI50 < 50 nM)
5,"C=CC(=O)Nc1cc(Nc2cc(N3OCC[C@@H]3Cc3cccc(Cl)c3F)ncn2)c(OC)cc1N1CCC(N2CCN(C3CC3)[C@@H](C)C2)CC1 [compound 1018, N-(5-((6-((S)-3-(3-chloro-2-fluorobenzyl)isoxazolidine-2-yl)pyrimidine-4-yl)amino)-2-(4-((S)-4-cyclopropyl-3-methylpiperazine-1-yl)piperidine-1-yl)-4-methoxyphenyl) acrylamide]",A (GI50 < 50 nM)
6,"C=CC(=O)Nc1cc(Nc2cc(N3OCC[C@@H]3c3ccc(F)c(Cl)c3F)ncn2)c(OC)cc1N1CCO[C@@H](C)C1 [compound 657, N-(5-((6-((R)-3-(3-chloro-2,4-difluorophenyl)isoxazolidine-2-yl)pyrimidine-4-yl)amino)-4-methoxy-2-((S)-2-methylmorpholino)phenyl)acrylamide]",A (GI50 < 50 nM)
7,"C=CC(=O)Nc1cc(Nc2cc(N3OCC[C@@H]3Cc3cccnc3)ncn2)c(OC)cc1N1CCC(N2C[C@H]3C[C@@H]2CO3)CC1 [compound 987, N-(2-(4-((1R,4R)-2-oxa-5-azabicyclo [2.2.1]heptane-5-yl)piperidine-1-yl)-4-methoxy-5-((6-((S)-3-(pyridine-3-ylmethyl)isoxazolidine-2-yl)pyrimidine-4-yl)amino)phenyl)acrylamide]",C (500 nM ≤ GI50 < 5000 nM)
8,"C=CC(=O)Nc1cc(Nc2cc(N3OCC[C@@H]3Cc3cccc(F)c3Cl)ncn2)c(OC)cc1N1CCC(N2CCN(C3CC3)[C@H](C)C2)CC1 [compound 1036, N-(5-((6-((S)-3-(2-chloro-3-fluorobenzyl)isoxazolidine-2-yl)pyrimidine-4-yl)amino)-2-(4-((R)-4-cyclopropyl-3-methylpiperazine-1-yl)piperidine-1-yl)-4-methoxyphenyl) acrylamide]",A (GI50 < 50 nM)
9,"C=CC(=O)Nc1cc(Nc2cc(N3OCC[C@@H]3c3ccc(Cl)c(Cl)c3F)ncn2)c(OC)cc1N1CCC(N2CC[C@@H](N(C)C)C2)CC1 [compound 771, N-(5-((6-((R)-3-(3,4-dichloro-2-fluorophenyl)isoxazolidine-2-yl)pyrimidine-4-yl)amino)-2-(4-((R)-3-(dimethylamino)pyrolidine-1-yl)piperidine-1-yl)-4-methoxyphenyl) acrylamide]",B (50 nM ≤ GI50 < 500 nM)

# The next lines start with the values.
row,Ba/F3 (NPH) Activity,SMILES
1,A (GI50 < 50 nM),"C=CC(=O)Nc1cc(Nc2cc(N3OCC[C@@H]3c3cccc(Cl)c3C)ncn2)c(OC)cc1N1CCC(N2CCOCC2)CC1 [compound 486, N-(5-((6-((R)-3-(3-chloro-2-methylphenyl)isoxazolidine-2-yl)pyrimidine-4-yl)amino)-4-methoxy-2-(4-morpholinopiperidine-1-yl)phenyl)acrylamide]"
2,B (50 nM ≤ GI50 < 500 nM),"C=CC(=O)Nc1cc(Nc2cc(N3OCC[C@@H]3c3ccc4ccccc4c3)ncn2)c(OC)cc1N1CCN(C)[C@@H](C)C1 [compound 662, N-(2-((S)-3,4-dimethylpiperazine-1-yl)-4-methoxy-5-((6-((R)-3-(naphthalene-2-yl)isoxazolidine-2-yl)pyrimidine-4-yl)amino)phenyl)acrylamide]"
3,A (GI50 < 50 nM),"C=CC(=O)Nc1cc(Nc2cc(N3OCC[C@@H]3c3ccc(Cl)c(Cl)c3)ncn2)c(OC)cc1N1CCC(N2CCN(C3COC3)CC2)CC1 [compound 931, N-(5-((6-((R)-3-(3,4-dichlorophenyl)isoxazolidine-2-yl)pyrimidine-4-yl)amino)-4-methoxy-2-(4-(4-(oxetane-3-yl)piperazine-1-yl)piperidine-1-yl)phenyl) acrylamide]"
4,C (500 nM ≤ GI50 < 5000 nM),"C=CC(=O)Nc1cc(Nc2cc(N3OCC[C@H]3c3c(F)cccc3F)ncn2)c(OC)cc1N1CCC(N2CC[C@@H](N(C)C)C2)CC1 [compound 314, N-(5-((6-((S)-3-(2,6-difluorophenyl)isoxazolidine-2-yl)pyrimidine-4-yl)amino)-2-(4-((R)-3-(dimethylamino)pyrolidine-1-yl)piperidine-1-yl)-4-methoxyphenyl) acrylamide]"
5,A (GI50 < 50 nM),"C=CC(=O)Nc1cc(Nc2cc(N3OCC[C@@H]3c3cccc(F)c3F)ncn2)c(OC)cc1N1C[C@H]2CCN(C)[C@H]2C1 [compound 875, N-(5-((6-((R)-3-(2,3-difluorophenyl)isoxazolidine-2-yl)pyrimidine-4-yl)amino)-4-methoxy-2-((3aR,6aR)-1-methylhexahydropyrrolo [3,4-b]pyrrole-5(1H)-yl)phenyl) acrylamide]"
6,A (GI50 < 50 nM),"C=CC(=O)Nc1cc(Nc2cc(N3OCC[C@@H]3c3ccc(F)c(Cl)c3F)ncn2)c(OC)cc1N1CCC(N2CCN(C(C)=O)CC2)CC1 [compound 636, N-(2-(4-(4-acetylpiperazine-1-yl)piperidine-1-yl)-5-((6-((R)-3-(3-chloro-2,4-difluorophenyl)isoxazolidine-2-yl)pyrimidine-4-yl)amino)-4-methoxyphenyl) acrylamide]"
7,C (500 nM ≤ GI50 < 5000 nM),"C=CC(=O)Nc1cc(Nc2cc(N3OCC[C@@H]3c3ccc(C)nc3)ncn2)c(OC)cc1N1CCN(C(C)=O)CC1 [Example 49, N-(2-(4-acetylpiperazine-1-yl)-4-methoxy-5-((6-((R)-3-(6-methylpyridine-3-yl)isoxazolidine-2-yl)pyrimidine-4-yl)amino)phenyl) acrylamide]"
8,A (GI50 < 50 nM),"C=CC(=O)Nc1cc(Nc2cc(N3OCC[C@@H]3c3cccc(F)c3)ncn2)c(OC)cc1N1CCC(N2CCN(CC)CC2)CC1 [Example 248, N-(2-(4-(4-ethylpiperazine-1-yl)piperidine-1-yl)-5-((6-((R)-3-(3-fluorophenyl)isoxazolidine-2-yl)pyrimidine-4-yl)amino)-4-methoxyphenyl) acrylamide]"
9,B (50 nM ≤ GI50 < 500 nM),"C=CC(=O)Nc1cc(Nc2cc(N3OCC[C@@H]3c3ccc(Cl)c(F)c3)ncn2)c(OC)cc1N1CC[C@H](N2CCOCC2)C1 [compound 365, N-(5-((6-((R)-3-(4-chloro-3-fluorophenyl)isoxazolidine-2-yl)pyrimidine-4-yl)amino)-4-methoxy-2-((S)-3-morpholinopyrolidine-1-yl)phenyl) acrylamide]"
10,A (GI50 < 50 nM),"C=CC(=O)Nc1cc(Nc2cc(N3OCC[C@@H]3c3cc(F)ccc3F)ncn2)c(OC)cc1N1C[C@H]2CCN(C)[C@H]2C1 [compound 892, N-(5-((6-((R)-3-(2,5-difluorophenyl)isoxazolidine-2-yl)pyrimidine-4-yl)amino)-4-methoxy-2-((3aR,6aR)-1-methylhexahydropyrrolo [3,4-b]pyrrole-5(1H)-yl)phenyl) acrylamide]"
11,A (GI50 < 50 nM),"C=CC(=O)Nc1cc(Nc2cc(N3OCC[C@@H]3c3ccc(F)c(Cl)c3)ncn2)c(OC)cc1N1CC[C@H](N(C)C)C1 [compound 906, N-(5-((6-((R)-3-(3-chloro-4-fluorophenyl)isoxazolidine-2-yl)pyrimidine-4-yl)amino)-2-((S)-3-(dimethylamino)pyrolidine-1-yl)-4-methoxyphenyl) acrylamide]"
12,A (GI50 < 50 nM),"C=CC(=O)Nc1cc(Nc2cc(N3OCC[C@@H]3c3ccccc3)ncn2)c(OC)cc1N1CCN(CC2CC2)CC1 [Example 277, N-(2-(4-(cyclopropylmethyl)piperazine-1-yl)-4-methoxy-5-((6-((R)-3-phenylisoxazolidine-2-yl)pyrimidine-4-yl)amino)phenyl) acrylamide]"
13,B (50 nM ≤ GI50 < 500 nM),"C=CC(=O)Nc1cc(Nc2cc(N3OCC[C@@H]3c3ccc(C)nc3)ncn2)c(OC)cc1N1CCC(N2CCN(C)CC2)CC1 [Example 47, N-(4-methoxy-2-(4-(4-methylpiperazine-1-yl)piperidine-1-yl)-5-((6((R)-3-(6-methylpyridine-3-yl)isoxazolidine-2-yl)pyrimidine-4-yl)amino)phenyl) acrylamide]"
